The results in this text go back to USRE33375E, “Treatments employing drug-containing matrices for introduction into cellular lesion areas” (Matrix Pharmaceuticals, Inc., priority 1988, dated 1990).

Experiment [1] relates to experimental murine fibrosarcoma (RIF-1 cells). Briefly: Regrowth delay of the treated transplantable murine fibrosarcoma. Format: in vivo, murine; female C3H mice. To be noted: time to 4 times initial treatment volume (150 mm^3), Mean ± S.E.
Experimental: times their initial treatment volume (150 mm^3). Increasing values
indicate enhanced therapeutic effect.
When the tumors reached a volume of 150 mm^3, the mice were assigned randomly to the following groups (4-6 mice per group): (1) untreated controls; (2) 5-FU (100 mg/kg), i.p., 0.1 ml/mouse; (3) 5-FU (100 mg/kg), i.t., 0.1 ml/tumor; (4) 5-FU-BC (100 mg 5-FU/kg dispersed in BC (18 mg/ml)), i.t., 0.1 ml/tumor; 5-FU-EPI-BC (100 mg 5-FU/kg) 5 mg EPI/kg dispersed in BC (18 mg/ml), i.t., 0.1 ml/tumor.
In the next study doxorubicin-HCl (ADM) (Adriamycin) was studied using the above-described protocol. The adriamycin in distilled water (4.45 mg/ml) was mixed with 36 mg/ml bovine collagen (BC) 1:1 to yield a composition ratio of 2.25 mg adriamycin:18 mg BC/ml.
^2 Tumor Regrowth Delay (RD). Time (days) required for tumors to grow
to 3 × its original treatment volume (~150 mm^3).
Increasing RD indicate increased tumor cell killing.
For experiment [2], the system named is uninjected contralateral fibrosarcoma (RIF-1 cells). Briefly: Regrowth delay of the uninjected contralateral fibrosarcoma. Format: in vivo, murine; female C3H mice. The conditions noted are these: time to 4 times initial volume, Mean ± S.E. Here is the method: A transplantable experimental murine fibrosarcoma (2×10^5 RIF-1 cells) was grown intradermally in the flank of 5 month old female C3H mice (Bantin and Kingman, Fremont, Calif.). Cis-diamine dichloroplatinum (II) (cis-Pt) (Sigma Chemical Co., St. Louis, Mo.) was dissolved in sterile saline at concentrations of 0.8, 1.6 and 3.2 mg/ml and mixed 1:1 with bovine collagen (BC) (36 mg/ml) in PBS 20 mM phosphate, 140 mM NaCl (Collagen Corp., Palo Alto, Calif.). Doses of 2, 4 and 8 mg/kg host of cis-Pt were delivered in 0.1 ml of the collagenous drug mixture to the center of the tumor growing in the flank (intratumorally, i.t.), and the tumor measured. The growth of a second uninjected tumor on the opposing flank of the same mouse was also measured. In addition, cis-Pt dissolved in PBS without collagen was administered intraperitoneally (i.p.) to other tumor-bearing mice (4 tumors/group) to monitor the effects on tumor growth of the drug without collagen. Furthermore, the effect of bovine collagen on tumor growth was also studied by injection of 0.1 ml of collagen, (18 mg/ml) into the experimental fibrosarcomas, as previously described. The growth of the tumors was monitored three times per week by caliper measurements of three perpendicular diameters of the tumor and calculating tumor volume from the formula
*Regrowth Delay determined as the time (days) for tumors to grow to four
times their initial treatment volume (150 mm^3).
In the next study 5-fluorouracil (5-FU) (Sigma Chem. Co., St. Louis, Mo.) with and without epinephrine (Sigma) suspended in saline by sonication (60 mg/ml) and mixed 1:1 with bovine collagen (BC) (Collagen Corp., Palo Alto, Calif.) (36 mg/ml) or normal saline. The subjects were 25 gm 12 week-old female C3H/He mice (Bantin and Kingman, Fremont, Calif.) bearing the transplatable experimental murine fibrosarcoma propagated intradermally as previously described.
The adriamycin in distilled water (4.45 mg/ml) was mixed with 36 mg/ml bovine collagen (BC) 1:1 to yield a composition ratio of 2.25 mg adriamycin:18 mg BC/ml.
^3 Contralateral Tumor RD (CRD). Time (days) required for untreated
contralateral tumors to grow to 3× its original treatment volume
(~150 mm^3). Decreasing RD indicate enhanced regionalization of
drug injected when compared to RD.
In the next study vincristine (VCR) was dissolved in saline (0.6 mg/ml) by sonication and mixed 1:1 with bovine collagen (36 mg/ml). Otherwise, the procedure was the same.
In the next study a combination of bleomycin sulfate (Sigma Chemical Co., St. Louis, Mo.) (15 mg/kg) and epinephrine (5 mg/kg) employed in a bovine collagen composition were evaluated for antitumor effect in the transplantable experimental murine fibrosarcoma model previously described. […]

The test system of a further experiment is RIF-1 tumor. The experiment can be described thus: RIF-1 tumor regrowth delay, cis-DDP-matrix implant in combination with hyperthermia. Type of experiment: in vivo, female C3H mice. The conditions noted are these: cis-DDP 6 mg/Kg, i.p. Here is the method:
In the next study cis-DDP-matrix (DDP=cis-Pt) implant in combination with hyperthermia was evaluated.
2. Hyperthermia (43° C., 30 min) alone
3. Hyperthermia+collagen-matrix (CM)+epinephrine (epi) (2 mg/Kg)
4. cis-DDP (6 mg/Kg) i.p.
6. cis-DDP (i.p.) 30 min before hyperthermia
7. cis-DDP-CM-epi (i.t.) 30 min before hyperthermia.
The tumor bearing mice were heated in a precision water bath with 30 gauge thermistor thermometry (±0.2° C.).

On to `N.N.[Cl][Pt][Cl]` [cis-Pt, Cis-diamine dichloroplatinum (II)], for which the “Regrowth Delay” value in experiment [1] (i.p., 2 mg/kg cis-Pt) was found to be 7.2 ± 0.1 days; in experiment [1] (i.p., 4 mg/kg cis-Pt) it was 9.1 ± 0.7 days; in experiment [1] (i.p., 8 mg/kg cis-Pt), 9.9 ± 1.0 days; in experiment [1] (i.t., 2 mg/kg cis-Pt, injected tumor) it was 9.5 ± 0.5 days; in experiment [1] (i.t., 4 mg/kg cis-Pt, injected tumor) it was 10.3 ± 0.7 days; in experiment [1] (i.t., 8 mg/kg cis-Pt, injected tumor) it was 11.5 ± 0.04 days. Also, the entries for the “Regrowth Delay, uninjected contra” value in experiment [2] (opposing tumor injected i.t. with 2 mg/kg cis-Pt), in experiment [2] (opposing tumor injected i.t. with 4 mg/kg cis-Pt) and in experiment [2] (opposing tumor injected i.t. with 8 mg/kg cis-Pt) were 9.3 ± 1.2 days, 8.9 ± 0.7 days and 9.9 ± 0.9 days, respectively. In addition, the “Tumor Regrowth Delay (2×)” value is 8.9 ± 0.8 days with RIF-1 tumor (30 min before hyperthermia (43° C., 30 min)) and 6.5 ± 1.5 days in the experiment with RIF-1 tumor (no hyperthermia).
